Reference: paper PMC9736291 (International Journal of Molecular Sciences, 2022)
Where two headings read alike, the source gives them in different places.

Key:
PrP^C [1] = format: cell-based, human; conditions: differentiated T98G cells
[2] = target: human MDR1 (P-glycoprotein, ABCB1) (Homo sapiens, UniProt P08183); test: in vitro; conditions: dog; for Papp A→B: MDCK-MDR1, Papp A–B; for Papp B→A: MDCK-MDR1, Papp B–A
in vitro [3] = conditions: guinea pig, plasma
in vitro [4] = conditions: Atp1a1^S/S (gene-edited), mouse, brain homogenate
in vitro [5] = conditions: guinea pig, brain homogenate
[6] = cited from earlier work
in vivo = conditions: Atp1a1^S/S (gene-edited), mouse
in vitro [7] = conditions: both, human, brain homogenate
human MDR1 [8] = target: T1, human MDR1 (Homo sapiens, UniProt P08183); conditions: dog, MDCK-MDR1
ReN VM cells [9] = conditions: human
PrP^C [10] = format: cell-based, human; conditions: ReN VM ATP1A1^r/r cells whose ATP1A1 does not bind CGs
HeLa cells = conditions: cited from earlier work
PrP^C [11] = format: cell-based, human
[12] = Atp1a1^S/S (gene-edited), mouse, in vivo; for Abrain / Cbrain (mean total brain concentration) / Cu,brain (unbound brain concentration): 0.6 mg/kg
human MDR1 [13] = target: T1, human MDR1; set-up: host or cells: MDCKII (canine kidney) cells, canine MDR1 deleted, human MDR1 gene inserted; method as in PMID 22906709, PMID 15620875; conditions: published values; cited from earlier work
[14] = in vivo, po; cited from earlier work
[15] = in vivo, iv; cited from earlier work
ReN VM cells [16] = conditions: cited from earlier work

T1 sequence (P08183 whole entry): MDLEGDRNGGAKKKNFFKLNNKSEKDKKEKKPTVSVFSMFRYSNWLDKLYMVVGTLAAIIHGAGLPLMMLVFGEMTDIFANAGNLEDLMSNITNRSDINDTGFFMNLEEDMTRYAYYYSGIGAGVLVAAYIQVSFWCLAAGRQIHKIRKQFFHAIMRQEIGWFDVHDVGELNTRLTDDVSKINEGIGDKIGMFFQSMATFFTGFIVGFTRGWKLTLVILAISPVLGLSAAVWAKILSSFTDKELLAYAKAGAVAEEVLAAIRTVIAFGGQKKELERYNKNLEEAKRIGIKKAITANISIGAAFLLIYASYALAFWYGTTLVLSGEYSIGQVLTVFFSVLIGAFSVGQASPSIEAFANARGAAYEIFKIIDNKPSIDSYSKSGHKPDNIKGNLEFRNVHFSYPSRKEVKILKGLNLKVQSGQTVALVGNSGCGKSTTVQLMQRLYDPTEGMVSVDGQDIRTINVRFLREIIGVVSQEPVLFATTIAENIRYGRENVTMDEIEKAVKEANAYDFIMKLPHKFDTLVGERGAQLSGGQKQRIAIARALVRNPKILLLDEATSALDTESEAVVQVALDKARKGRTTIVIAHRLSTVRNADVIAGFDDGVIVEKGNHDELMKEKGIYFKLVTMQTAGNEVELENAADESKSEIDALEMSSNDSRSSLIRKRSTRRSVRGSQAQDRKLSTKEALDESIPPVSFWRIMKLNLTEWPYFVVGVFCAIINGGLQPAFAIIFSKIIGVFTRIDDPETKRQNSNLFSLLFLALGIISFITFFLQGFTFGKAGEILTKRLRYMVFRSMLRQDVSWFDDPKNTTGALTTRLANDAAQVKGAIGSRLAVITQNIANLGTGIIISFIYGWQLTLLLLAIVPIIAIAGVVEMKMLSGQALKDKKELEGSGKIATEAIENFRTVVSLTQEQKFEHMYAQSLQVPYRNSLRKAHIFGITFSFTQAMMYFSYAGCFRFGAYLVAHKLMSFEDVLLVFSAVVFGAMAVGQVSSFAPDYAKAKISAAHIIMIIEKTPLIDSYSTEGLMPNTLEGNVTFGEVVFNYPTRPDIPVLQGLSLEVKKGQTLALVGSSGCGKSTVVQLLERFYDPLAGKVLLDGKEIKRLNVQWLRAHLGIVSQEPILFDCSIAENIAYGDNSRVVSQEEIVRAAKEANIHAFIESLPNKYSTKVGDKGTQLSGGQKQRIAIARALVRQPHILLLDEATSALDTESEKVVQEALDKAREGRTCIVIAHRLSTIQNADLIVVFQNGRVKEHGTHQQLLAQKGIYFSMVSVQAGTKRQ
human MDR1 (P-glycoprotein, ABCB1), sequence (P08183 whole entry): as above

Compound | estimated total brain concentration attainable in human brains [nM] | Papp A→B [2] [×10⁻⁶ cm/s] | Papp B→A [2] [×10⁻⁶ cm/s] | fraction unbound (in vitro [3]) | fraction unbound (in vitro [4]) | fraction unbound (in vitro [5]) | Kp uu (in vivo) | fraction unbound (in vitro [7]) | Papp B–A (human MDR1 [8]) | toxicity threshold (concentration at which all three cellular health indicators dropped to 75% of untreated) (ReN VM cells [9]) [nM] | Vu,brain [12] [mL/g brain] | Abrain ([12]; sc) [ng/g brain] | Cbrain (mean total brain concentration) ([12]; sc) [nM] | Cu,brain (unbound brain concentration) ([12]; sc) [nM] | other results
COC1CC(OC2CCC3(C)C(CCC4C3CCC3(C)C(C5=CC(=O)OC5)C(OC(C)=O)CC43O)C2)OC(C)C1=O (centres unmarked) [KDC203, 4′-dehydro-oleandrin] | 27 | 11.6 | 41.9 | 0.359 | 0.33 | 0.294 | 0.44 | 0.395 | 70.60 | 46 | 2.90 | 16.75 | 30.46 | 10.05 | reduction in PrP^C levels (PrP^C [1]): recapitulate the KDC203-dependent reduction in PrP^C levels; estimated unbound concentration attainable in human brains: ~10 nM; oral effectiveness relative to oleandrin (lethal doses oral versus intravenous), higher by ([6]; cats): approximately 20%; oral toxicity relative to oleandrin ([6]; in vivo, po): almost twofold lower; Papp A–B (human MDR1 [8]): 7.24; reduction of extrusion on addition of Zosuquidar (human MDR1 [8]): more than 50%; concentrations at which cytotoxicity observed (ReN VM cells [9]): > 40 nM; reduction in PrP^C levels (PrP^C [10]): no KDC203-mediated reduction in PrP^C levels was observed; IC50 (HeLa cells): 46 nM; maximum reduction in steady-state PrP^C levels (3F4-reactive signals) (PrP^C [11]): 84%; brain levels relative to heart levels ([12]; sc): 3.5 fold; total brain concentration of KDC203 relative to oleandrin ([12]; sc): 1.5 fold
C[C@H]1O[C@@H](O[C@H]2[C@@H](O)C[C@H](O[C@H]3[C@@H](O)C[C@H](O[C@H]4CC[C@@]5(C)[C@H](CC[C@@H]6[C@@H]5C[C@@H](O)[C@]5(C)[C@@H](C7=CC(=O)OC7)CC[C@]65O)C4)O[C@@H]3C)O[C@@H]2C)C[C@H](O)[C@@H]1O [digoxin] |  |  |  |  |  |  |  |  |  |  |  |  |  |  | PappA-B, published value (human MDR1 [13]): 0.5 ×10⁻⁶ cm/s
CO[C@H]1C[C@H](O[C@H]2CC[C@@]3(C)[C@H](CC[C@@H]4[C@@H]3CC[C@]3(C)[C@@H](C5=CC(=O)OC5)[C@@H](OC(C)=O)C[C@]43O)C2)O[C@@H](C)[C@@H]1O [oleandrin, reference compound] | ≤ 18 | 7.06 | 146 | 0.219 | 0.24 | 0.219 | 0.27 | 0.316 | 145.79 | 2.7 | 3.98 | 10.58 | 19.23 | 4.61 | plasma levels [14]: 3 nM; cerebrum levels relative to plasma levels [15]: 6 fold; concentrations at which toxic (ReN VM cells [16]): exceeding 4 nM
